Source: patent US7026314B2, “Therapeutic chromone compounds” (AstraZeneca AB, priority 2001, dated 2006)

Target: 5-HT1B and 5HT1D receptors
Assay: not given
Settings: saturation studies, guinea pig cortex membranes; read-out: Kd value of [3H]GR125743; cited from earlier work

| Compound | Kd |
| --- | --- |
| COc1ccc(NC(=O)c2ccc(-c3ccncc3)c(C)c2)cc1N1CCN(C)CC1 [[^3H]-GR125743] | 0.046 ± 0.004 nM |

System: guinea pigs
Assay: learned helplessness test in guinea pigs
Format: in vivo
Settings: guinea pig
Source text: The utility of the compounds for example to treat depression may be shown via a learned helplessness test in guinea pigs, which is used extensively as correlative to antidepressant activity in humans. The learned helplessness test may be carried out as follows: Seventy male Hartley guinea pigs, each weighing about 350–425 gm are fed ad lib, and are housed under a 12-hour light/dark cycle. The procedure consists of two phases: The induction phase and the avoidance training phase. In the induction phase, subjects are placed into standard shuttle cages (20 L×16 W×21 centimeters H) which are fitted with a grid floor. Electrical stimulation (1.25 mA, 10 sec duration) is delivered to the floor of the cage every 90-sec during 1 hour daily sessions. Subjects have no opportunity to escape or to avoid shocks. Induction is conducted for 2 consecutive days.
In avoidance training, testing is also conducted in the shuttle cages, except that the subjects are not returned to the same chamber in which induction had occurred. Additionally, all cages are fitted with a partition with an arch in the center of the cage, through which animals can pass between the left and right halves of the cage. The procedure employed is a standard shuttle avoidance procedure in which a compound, conditioned stimulus (a 10-sec presentation of a tone and turning on of a lamp on the side of the cage that the guinea pig was occupying) serves to indicate presentation of electrical current to the floor of the cage. Shock is presented for a 5 sec period, 5 sec after initiation of the conditioned stimulus. Entry into the opposite side of the shuttle cage via the arched partition prior to shock onset results in the end of the trial (avoidance response). If shock is delivered, entry into the opposite side of the cage results in termination of the shock and CS (escape). Reversal of learned helplessness in the induction subjects correlates to antidepressant activity of the test compound.
Avoidance training, 45-min in duration, is conducted on 2 consecutive days, beginning 48 hr after the final induction session. Seventy subjects are assigned to 1 of 6 groups of 11–12 animals. The groups are as follows:
Groups 2–6 are given induction and avoidance training sessions. Injections are administered immediately following induction sessions and 1 hour prior to avoidance training sessions. A second injection is administered 7–8 hours following the first injection, for a total of 9 injections administered over 5 days. No injections are administered following the final avoidance training session.
Compounds of the present invention may be administered in a volume of 1 mL/kg bwt. Imipramine is dissolved in DI water. The compounds are dissolved in DI water, to which was added a few drops of lactic acid (pH 5.5). […]

| Compound | activity in the learned helplessness assay for antidepressant/antianxiety activity |
| --- | --- |
| CCS(=O)(=O)N1CCN(c2ccc(NC(=O)c3cc(=O)c4cc(F)cc(N5CCN(C)CC5)c4o3)cc2)CC1 [Example 71, 6-Fluoro-8-(4-methyl-piperazin-1-yl)-4-oxo-4H-chromene-2-carboxylic acid [4-(4-ethanesulfonyl-piperazin-1-yl)-phenyl]-amide] | demonstrate activity |
| COc1cc(N2CCN(C)CC2)c2oc(C(=O)Nc3ccc(N4CCOCC4)cc3)cc(=O)c2c1 [Example 31, 6-Methoxy-8-(4-methyl-piperazin-1-yl)-4-oxo-4H-chromene-2-carboxylic acid (4-morpholin-4-yl-phenyl)-amide] | demonstrate activity |
| CCC(=O)N1CCN(c2ccc(NC(=O)c3cc(=O)c4cc(OC)cc(N5CCN(C)CC5)c4o3)cc2)CC1 [Example 44, 6-Methoxy-8-(4-methyl-piperazin-1-yl)-4-oxo-4H-chromene-2-carboxylic acid [4-(4-propionyl-piperazin-1-yl)-phenyl]-amide] | demonstrate activity |
| CCC(=O)N1CCN(c2ccc(NC(=O)c3cc(=O)c4cc(F)cc(N5CCN(C)CC5)c4o3)cc2)CC1 [Example 72, 6-Fluoro-8-(4-methyl-piperazin-1-yl)-4-oxo-4H-chromene-2-carboxylic acid [4-(4-propionyl-piperazin-1-yl)-phenyl]-amide] | demonstrate activity |

System: not given
Assay: not given
Settings: not given

| Compound | melting point |
| --- | --- |
| CN1CCN(c2cccc3c2OC(C(=O)Nc2ccc(N4CCOCC4)cc2)CC3=O)CC1 (racemic) [Example 78, racemic-8-(4-methyl-piperazin-1-yl)-4-oxo-chroman-2-carboxylicacid (4-morpholin-4-yl-phenyl)-amide] | 215 to 216 °C |
| COc1cc(N2CCN(C)CC2)c2oc(C(=O)Nc3ccc(N4CCN(C(=O)CCO)CC4)cc3)cc(=O)c2c1 [Example 68, 6-Methoxy-8-(4-methyl-piperazin-1-yl)-4-oxo-4H-chromene-2-carboxylic acid {4-[4-(3-hydroxy-propanoyl)-piperazin-1-yl]-phenyl}-amide] | 195 to 197 °C |
| CN1CCN(c2cccc3c(=O)cc(C(=O)Nc4ccc(N5CCOCC5)cc4O)oc23)CC1 [Example 22, 8-(4-Methyl-piperazin-1-yl)-4-oxo-4H-chromene-2-carboxylic acid (2-hydroxy-4-morpholin-4-yl-phenyl)-amide] | 248.4 to 249.6 °C |
| CCS(=O)(=O)N1CCN(c2ccc(NC(=O)c3cc(=O)c4cc(F)cc(N5CCN(C)CC5)c4o3)cc2)CC1 [Example 71, 6-Fluoro-8-(4-methyl-piperazin-1-yl)-4-oxo-4H-chromene-2-carboxylic acid [4-(4-ethanesulfonyl-piperazin-1-yl)-phenyl]-amide] | 233 to 234 °C |
| CN1CCN(c2cccc3c2OC(C(=O)Nc2ccc(N4CCOCC4)cc2)CC3=O)CC1 (single isomer, unassigned) [Example 80, 8-(4-Methyl-piperazin-1-yl)-4-oxo-chroman-2-carboxylic acid (4-morpholin-4-yl-phenyl)-amide(slowerrunning isomer).] | 215 °C (dec.) |
| COc1cc(N2CCN(C)CC2)c2oc(C(=O)Nc3ccc(N4CCOCC4)cc3)cc(=O)c2c1 [Example 31, 6-Methoxy-8-(4-methyl-piperazin-1-yl)-4-oxo-4H-chromene-2-carboxylic acid (4-morpholin-4-yl-phenyl)-amide] | 234 to 236 °C |
| CN1CCN(c2cccc3c2OC(C(=O)Nc2ccc(N4CCOCC4)cc2)CC3)CC1 (single isomer, unassigned; (+)) [Example 76, (+)-8-(4-Methyl-piperazin-1-yl)-chroman-2-carboxylic acid (4-morpholin-4-yl-phenyl)-amide] | 206 to 207 °C |
| CN1CCN(c2cccc3c2OC(C(=O)Nc2ccc(N4CCOCC4)cc2)CC3)CC1 (racemic) [Example 75, 8-(4-Methyl-piperazin-1-yl)-chroman-2-carboxylic acid(4-morpholin-4-yl-phenyl)-amide] | 215 to 216 °C |
| CN1CCN(c2cccc3c2OC(C(=O)Nc2ccc(N4CCOCC4)cc2)CC3=O)CC1 (single isomer, unassigned) [Example 79, 8-(4-Methyl-piperazin-1-yl)-4-oxo-chroman-2-carboxylic acid (4-morpholin-4-yl-phenyl)-amide(fasterrunning isomer)] | 216 °C (dec.) |
| CN1CCN(c2cccc3c(=O)cc(C(=O)Nc4ccc(N5CCOCC5)cc4)oc23)CC1 [Example 1, 8-(4-methyl-1-piperazinyl)-N-[4-(4-morpholinyl)phenyl]-4-oxo-4H-chromene-2-carboxamide] | 217 to 218 °C (dec.) |
| CN1CCN(c2cccc3c(=O)cc(-c4nc5ccc(N6CCOCC6)cc5o4)oc23)CC1 [Example 21, 8-(4-Methyl-piperazin-1-yl)-2-(6-morpholin-4-yl-benzooxazol-2-yl)-chromen-4-one] | 158.1 to 158.8 °C |
| CN1CCN(c2cccc3c2OC(C(=O)Nc2ccc(N4CCOCC4)cc2)CC3)CC1 (single isomer, unassigned; (-)) [Example 77, (−)-8-(4-Methyl-piperazin-1-yl)-chroman-2-carboxylic acid (4-morpholin-4-yl-phenyl)-amide] | 205.5 to 207 °C |
| CN1CCN(c2cc(F)cc3c(=O)cc(C(=O)Nc4ccc(N5CCN(C(=O)CCO)CC5)cc4)oc23)CC1 [Example 73, 6-Fluoro-8-(4-methyl-piperazin-1-yl)-4-oxo-4H-chromene-2-carboxylic acid {4-[4-(3-hydroxy-propanoyl)-piperazin-1-yl]-phenyl}-amide] | 195 to 199 °C |

Target: T1, 5-HT1B receptors (Homo sapiens, UniProt P28222)
T1 construct: expressed in transfected cells; host or cells: CHO (stably transfected), frozen membrane preparations
Assay: 5-HT1b binding assay, competition with [3H]-GR125743 on CHO cell membranes
Settings: CHO membranes expressing 5-HT1B and 5-HT1D receptors
Source text: Other assays that may be used to measure for example affinity of compounds of the present invention for 5HT1B and 5HT1D receptors are described in J. Med. Chem 41:1218–1235, 1228 (1998) and J. Med. Chem 42:4981–5001, (1999) and incorporated by reference herein. These assays may be used with some modifications: Frozen membrane preparations of a stably transfected chinese hamster ovary (CHO) cell line expressing 5-HT1B receptors and 5-HT1D receptors are thawed rapidly, briefly vortexed, and diluted in assay buffer (AB) containing 50 mM Tris-HCl, 4 mM MgCl2, 4mM CaCl2, 1 mM EDTA, and adjusted to pH 7.4 with NaOH. Final protein concentrations are −0.185 mg/ml for 5-HT1B, and 0.4 mg/ml for 5-HT1D membranes. Test compounds are evaluated in competition assays using [^3H]-GR125743 (Amersham). The ligand concentration in both assays was 0.27 nM. […] The 5-HT1B and 5-HT1D assays are performed simultaneously on one 96-well assay plate, one drug/compound per plate. Ten serial dilutions (1 uM to 4 pM, final concentration) of compound are prepared in DMSO from 10 mM stock solutions. Incubation mixtures are prepared in quadruplicate in 96-deep well assay plates (Matrix 1 ml). […] The plates are then counted on a Packard TopCount to determine CPM's per well. Ki values are determined for each test compound utilizing the graphic and analytical software package, GraphPad Prism. […]

T1 sequence (P28222 whole entry): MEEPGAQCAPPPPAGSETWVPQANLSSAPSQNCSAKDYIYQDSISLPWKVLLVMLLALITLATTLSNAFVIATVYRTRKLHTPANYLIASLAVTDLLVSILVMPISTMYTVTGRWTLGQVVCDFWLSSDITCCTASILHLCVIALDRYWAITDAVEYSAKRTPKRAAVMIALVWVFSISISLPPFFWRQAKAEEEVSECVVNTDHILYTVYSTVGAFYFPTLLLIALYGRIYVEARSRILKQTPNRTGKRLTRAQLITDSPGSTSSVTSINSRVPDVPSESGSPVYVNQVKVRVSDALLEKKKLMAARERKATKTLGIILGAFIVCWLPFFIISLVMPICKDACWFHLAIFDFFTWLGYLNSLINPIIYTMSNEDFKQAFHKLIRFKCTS

| Compound | Kd |
| --- | --- |
| COc1ccc(NC(=O)c2ccc(-c3ccncc3)c(C)c2)cc1N1CCN(C)CC1 [[^3H]-GR125743] | 0.15 to 0.25 nM |
